Patent US4320148A, “2-Aminotetralin compounds, pharmaceutical compositions and method of producing central alpha1 agonist activity” (SmithKline Corporation, priority 1980, dated 1982)

System: postjunctional alpha1 receptor (isolated rabbit ear artery segment)
Experiment: postjunctional alpha1 agonist activity (EC50), isolated segment of rabbit ear artery
Assay type: cell-based
Details: isolated rabbit ear artery segment superfused with oxygenated Krebs solution; maximum response of the artery determined with norepinephrine; read-out: EC50 (dose required to produce 50% of the maximum response)
Experimental: A quantitation of postjunctional alpha1 agonist activity (EC50) is determined for compounds showing activity in the above test. This is accomplished by employing an isolated segment of rabbit ear artery. The segment is mounted in a chamber superfused with oxygenated Krebs solution. The segment is suspended between two tungsten wires, one attached to the chamber, the other to a force-displacement transducer so that smooth muscle tension can be measured directly. Before administration of the test drug, norepinephrine is administered in increasing concentration (10^-8 M to 3×10^-6 M) to determine maximum response of the artery. The dose required to produce 50% of the maximum response is the EC50.

| Structure (SMILES) | EC50 |
| --- | --- |
| COc1ccc(OC)c2c1CCC(N)C2 (stereo not shown) [SK&F 87,696] | 110 nM |
| COc1ccc(OC)c2c1CCC(N(C)C)C2 (stereo not shown) [SK&F 88,444] | 100 nM |
| COc1ccc(SC)c2c1CC(N)CC2 (stereo not shown) [SK&F 89,748, 1,2,3,4-tetrahydro-8-methoxy-5-(methylthio)-2-naphthalenamine] | 9.3 nM |
| COc1ccc(SC)c2c1CC(N(C)C)CC2 (stereo not shown) [SK&F 89,900, 1,2,3,4-tetrahydro-8-methoxy-N,N-dimethyl-5-(methylthio)-2-naphthalenamine] | 13 nM |
